Key:
Type in all cases: cell-based
human muscarinic M4 = target: T1, human muscarinic M4 (Homo sapiens, UniProt P08173); experiment: cAMP HTRF functional assay, forskolin-induced cAMP production in M4/CHO/miRNA cell line
T1 construct: expressed in transfected cells; host or cells: CHO-K1 (M4/CHO and M4/CHO/miRNA cell lines)
T1 sequence (P08173 1-479): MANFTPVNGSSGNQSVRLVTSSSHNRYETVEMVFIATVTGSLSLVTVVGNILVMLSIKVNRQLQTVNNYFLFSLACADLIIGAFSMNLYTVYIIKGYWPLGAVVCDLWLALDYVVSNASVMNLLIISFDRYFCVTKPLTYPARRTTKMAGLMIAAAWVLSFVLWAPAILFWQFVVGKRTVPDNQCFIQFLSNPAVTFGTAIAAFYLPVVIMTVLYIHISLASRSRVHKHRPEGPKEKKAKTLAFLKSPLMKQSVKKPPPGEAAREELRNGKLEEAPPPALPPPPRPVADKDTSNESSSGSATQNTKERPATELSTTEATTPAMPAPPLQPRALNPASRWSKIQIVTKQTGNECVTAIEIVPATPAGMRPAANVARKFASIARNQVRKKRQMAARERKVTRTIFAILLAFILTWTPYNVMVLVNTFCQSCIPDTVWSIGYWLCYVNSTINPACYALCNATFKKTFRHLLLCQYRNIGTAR
Description: CHO-K1 stably expressing the human muscarinic M4 or the human dopamine D4.4 receptor were cultured under standard conditions. Cells were harvested by EDTA, washed once in phosphate buffered saline and resuspended in assay buffer (HBSS containing 0.1% glucose and 0.5 mM IBMX). The cells were dispensed into a black 96 half-well plate at a cell density of 10,000-15,000 cells. After incubation for 30 min at room temperature or at 37° C., an equal volume of assay buffer containing forskolin, then acetylcholine or quimpirole was added to the cells. After incubation for 30 min at room temperature or 37° C., cAMP detection was performed following the protocol described above. The plate was incubated for one more hour at room temperature and then measured on a RUBYstar^a (BMG Labtechnologies) time-resolved fluorescence reader. […]

[1] = target: T2, human dopamine D4.4 receptor (Homo sapiens, UniProt P21917); experiment: cAMP assay with NKH477 or forskolin as activator, D4.4 receptor stably expressed in CHO-K1; details: D4.4 in CHO-K1, 1 μM of agonist (dopamine)
T2 construct: expressed in transfected cells; host or cells: CHO-K1
T2 sequence (P21917 1-419): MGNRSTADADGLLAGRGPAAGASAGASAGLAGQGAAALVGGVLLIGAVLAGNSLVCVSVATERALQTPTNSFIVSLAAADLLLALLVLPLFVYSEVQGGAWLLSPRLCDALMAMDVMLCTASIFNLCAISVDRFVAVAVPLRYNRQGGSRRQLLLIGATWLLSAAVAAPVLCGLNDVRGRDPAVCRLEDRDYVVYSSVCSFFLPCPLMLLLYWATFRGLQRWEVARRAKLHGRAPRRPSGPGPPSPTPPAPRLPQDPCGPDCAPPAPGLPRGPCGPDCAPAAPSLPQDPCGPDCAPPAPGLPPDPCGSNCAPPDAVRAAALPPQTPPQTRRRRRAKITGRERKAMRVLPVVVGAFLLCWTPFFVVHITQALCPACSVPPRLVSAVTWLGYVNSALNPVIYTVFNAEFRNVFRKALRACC
Description: cAMP measurements on CHO-K1 cells that stably expressed the human muscarinic M4 or the human dopamine D4.4 receptor were performed via the HTRF (homogeneous time-resolved fluorescence) technology (CIS Bio, France). The principle of these cAMP assays is based on a competition between cAMP produced by cells and cAMP-XL665 conjugate for the binding with monoclonal anti-cAMP-cryptate conjugate. The HTRF) conjugates are prepared in lysis buffer so that the cell lysis and the detection step can be performed simultaneously.
(§1) To measure the production of cAMP from cells, cells were harvested and resuspended with HBSS Buffer. Varying concentrations of cells were plated in a 96-well plate. Serial dilutions of agonists (Dopamine or Epinephrine) were added and incubated for 10′ at room temperature with the cells. Forskolin or NKH477 were added, and the plate was incubated at 37° C. for 10 minutes. After cell induction, the assay reagents were added as outlined in the assay procedure.
For the D4—CHO K1 cell line (D4 stably transfected in CHO K1 host cell line) 0.7 μM of NKH477 and Forskolin were used with or without 1 μM of Dopamine
(§2) c) CHO-K1 cells expressing D4.4, alpha2c H3 and D2S receptors were exposed to increasing concentrations of ligands, respectively dopamine, epinephrine, histamine and dopamine ranging from 0.01 nM to 10 μM in the presence of 30 μM forskolin or 10 μM NKH-477.

[2] = system: adenylyl cyclase isoform V and/or VI; experiment: cAMP production with NKH-477 instead of forskolin as in vitro activator of cAMP formation; details: cells expressing the adenylyl cyclase isoform V and/or VI
alpha 2c receptor = target: T3, alpha 2c receptor (Homo sapiens, UniProt P18825); experiment: cAMP assay with NKH477 or forskolin as activator, alpha 2c receptor stably expressed in CHO-S; details: alpha 2c in CHO-S, 1 μM of agonist (epinephrine)
T3 construct: expressed in transfected cells; host or cells: CHO-S
T3 sequence (P18825 1-462): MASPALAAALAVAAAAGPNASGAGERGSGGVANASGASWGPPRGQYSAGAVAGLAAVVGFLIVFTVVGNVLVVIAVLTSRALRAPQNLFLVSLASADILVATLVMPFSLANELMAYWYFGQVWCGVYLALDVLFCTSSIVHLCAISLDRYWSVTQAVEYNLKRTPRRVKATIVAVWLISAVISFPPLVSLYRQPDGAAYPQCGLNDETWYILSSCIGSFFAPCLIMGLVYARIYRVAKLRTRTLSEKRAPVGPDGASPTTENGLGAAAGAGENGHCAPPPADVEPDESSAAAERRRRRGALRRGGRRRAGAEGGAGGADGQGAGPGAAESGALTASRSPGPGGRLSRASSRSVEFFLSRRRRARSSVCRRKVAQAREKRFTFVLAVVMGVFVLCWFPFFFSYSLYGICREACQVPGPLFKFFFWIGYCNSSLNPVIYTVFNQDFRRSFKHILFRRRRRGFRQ
Description: as §1
For the alpha2c—CHO S cell line (alpha 2c stably transfected in CHO S host cell line) was incubate with 5 μM of NKH477 and Forskolin 10′ at 37° C. without or with 1 μM of Epinephrine
as §2

Compound | inhibition at 1 µM (human muscarinic M4; 1 μM, M4/CHO/miRNA cell line, read-out: inhibition of Forskolin stimulated cAMP production) [%] | increase of inhibitory potency on Forskolin induced cAMP production compared to wild CHO cells expressing M4 receptor (human muscarinic M4; M4/CHO/miRNA versus M4/CHO) | enhancement of cAMP production inhibition with NKH477 instead of forskolin [1] | signal window compared with Forskolin [1] | increase of the production of cAMP instead of forskolin [2] | enhancement of cAMP production inhibition with NKH477 instead of forskolin (alpha 2c receptor) | signal window compared with Forskolin (alpha 2c receptor)
O=C1CCCN1CC#CCN1CCCC1 [Oxotremorine] | > 85 | 25-30% |  |  |  |  | 
C=C[C@@]1(C)CC(=O)[C@]2(O)[C@@]3(C)[C@@H](O)CCC(C)(C)[C@@H]3[C@H](OC(=O)CCN(C)C)[C@H](OC(C)=O)[C@@]2(C)O1.Cl [NKH477, 6-(3-dimethylaminopropionyl) forskolin hydrochloride] |  |  | up to 20% | greater signal window than Forskolin | up to 20% | up to 20% | greater signal window than Forskolin

— patent US20090305271A1, “In Vitro Assay Based on Camp Levels Modulated by Gi-Coupled Receptors” (priority 2006, published 2009)
